According to PMC9533837 (Antiviral Research, 2003):
In brackets after ≈: the same amount, converted by molar mass. Read-outs that look alike come from different tables or passages of the source.

Assays:
[1] = tested on: Vero cells; settings: African green monkey
[2] = tested on: VAR isolate V73-175; assay: organism not typed; assay type: cell-based, variola; settings: Vero, read-out: IC50, VAR isolate V73-175
[3] = tested on: CPX Brighton; assay: organism not typed; assay type: cell-based, cowpox; settings: for IC50: Vero
[4] = tested on: VAR-BSH (1975 Bangladesh isolate of VAR major); assay: organism not typed; assay type: cell-based, variola major; settings: for IC50: LLC-MK2, read-out: IC50 VAR-BSH LLC-MK2
[5] = tested on: VAR-GAR (1966 Brazil Garcia isolate of VAR minor); assay: organism not typed; assay type: cell-based, variola minor; settings: for IC50: Vero
[6] = tested on: VAR isolate V70-46; assay: organism not typed; assay type: cell-based, variola; settings: Vero, read-out: IC50, VAR isolate V70-46
[7] = tested on: VAR isolate V74-227; assay: organism not typed; assay type: cell-based, variola; settings: Vero, read-out: IC50, VAR isolate V74-227
[8] = tested on: VAR isolate V73-225; assay: organism not typed; assay type: cell-based, variola; settings: Vero, read-out: IC50, VAR isolate V73-225
[9] = tested on: CPX Brighton; assay: organism not typed; assay type: cell-based, cowpox; settings: for IC50: LLC-MK2, read-out: IC50 CPX LLC-MK2
[10] = tested on: VAR isolate Hinden; assay: organism not typed; assay type: cell-based, variola; settings: Vero, read-out: IC50, VAR isolate Hinden
[11] = tested on: VAR-GAR (1966 Brazil Garcia isolate of VAR minor); assay: organism not typed; assay type: cell-based, variola minor; settings: for IC50: LLC-MK2, read-out: IC50 VAR-GAR LLC-MK2
[12] = tested on: VAC Copenhagen; assay: microbe, parasite or virus in culture; assay type: cell-based, vaccinia virus; settings: for IC50: Orthopoxvirus vaccinia, LLC-MK2, read-out: IC50 VAC LLC-MK2
[13] = tested on: VAR isolate Somalia; assay: organism not typed; assay type: cell-based, variola; settings: Vero, read-out: IC50, VAR isolate Somalia
[14] = tested on: VAR isolate V70-222; assay: organism not typed; assay type: cell-based, variola; settings: Vero, read-out: IC50, VAR isolate V70-222
[15] = tested on: all VAR isolates tested; assay: organism not typed; assay type: cell-based, variola; settings: Vero, read-out: IC50, VAR mean
[16] = tested on: MPX Zaire (V79-1-005-Scab); assay: organism not typed; assay type: cell-based, monkeypox; settings: for IC50: Vero
[17] = tested on: VAR-YAM (1946 Japan Yamada isolate of VAR major); assay: organism not typed; assay type: cell-based, variola major; settings: for IC50: Vero
[18] = tested on: VAR isolate 7125; assay: organism not typed; assay type: cell-based, variola; settings: Vero, read-out: IC50, VAR isolate 7125
[19] = tested on: VAR isolate Jee; assay: organism not typed; assay type: cell-based, variola; settings: Vero, read-out: IC50, VAR isolate Jee
[20] = tested on: VAR isolate Shahzaman; assay: organism not typed; assay type: cell-based, variola; settings: Vero, read-out: IC50, VAR isolate Shahzaman
[21] = tested on: VAR isolate Harper; assay: organism not typed; assay type: cell-based, variola; settings: Vero, read-out: IC50, VAR isolate Harper
[22] = tested on: CPX; settings: cited from earlier work
[23] = tested on: VAR isolate Horn; assay: organism not typed; assay type: cell-based, variola; settings: Vero, read-out: IC50, VAR isolate Horn
[24] = tested on: VAR isolate Iran 2602; assay: organism not typed; assay type: cell-based, variola; settings: Vero, read-out: IC50, VAR isolate Iran 2602
[25] = tested on: MPX Zaire (V79-1-005-Scab); assay: organism not typed; assay type: cell-based, monkeypox; settings: for IC50: LLC-MK2, read-out: IC50 MPX LLC-MK2
[26] = tested on: VAR isolate Rafig Lahore; assay: organism not typed; assay type: cell-based, variola; settings: Vero, read-out: IC50, VAR isolate Rafig Lahore
[27] = tested on: VAR-BSH (1975 Bangladesh isolate of VAR major); assay: organism not typed; assay type: cell-based, variola major; settings: for IC50: Vero
[28] = tested on: VAR isolate Butler; assay: organism not typed; assay type: cell-based, variola minor; settings: Vero, read-out: IC50, VAR isolate Butler
[29] = tested on: VAR isolate V68-59; assay: organism not typed; assay type: cell-based, variola minor; settings: Vero, read-out: IC50, VAR isolate V68-59
[30] = tested on: VAC Copenhagen; assay: microbe, parasite or virus in culture; assay type: cell-based, vaccinia virus; settings: for IC50: Orthopoxvirus vaccinia, Vero, read-out: IC50 VAC Vero
[31] = tested on: VAR isolate V77-1605; assay: organism not typed; assay type: cell-based, variola; settings: Vero, read-out: IC50, VAR isolate V77-1605
[32] = tested on: orthopoxviruses (VAR-BSH, VAR-YAM, VAR-GAR, MPX, CPX, VAC); assay: organism not typed; assay type: cell-based
[33] = tested on: VAR isolate Higgins; assay: organism not typed; assay type: cell-based, variola; settings: Vero, read-out: IC50, VAR isolate Higgins
[34] = tested on: LLC-MK2 cells; settings: rhesus monkey
[35] = tested on: VAR-YAM (1946 Japan Yamada isolate of VAR major); assay: organism not typed; assay type: cell-based, variola major; settings: for IC50: LLC-MK2, read-out: IC50 VAR-YAM LLC-MK2
[36] = tested on: VAR isolate K1629; assay: organism not typed; assay type: cell-based, variola; settings: Vero, read-out: IC50, VAR isolate K1629
[37] = tested on: VAC; settings: cited from earlier work
[38] = read-out: IC50, VAR isolate Garcia
[39] = read-out: IC50, VAR isolate Yamada
[40] = read-out: IC50, VAR isolate Bangladesh

SMILES: NC(=O)c1ncn([C@@H]2O[C@H](CO)[C@@H](O)[C@H]2O)n1 [Ribavirin]
- Cytotoxicity TC50 Vero [1]: >100 µg/mL
- IC50 [2]: 17 µg/mL (≈ 69.6 µM)
- Therapeutic index (TI) CPX Vero [3]: 3.3
- IC50 ([3]; read-out: IC50, CPX): > 300 µg/mL
- IC50 ([3]; read-out: IC50 CPX Vero): 30.6 µg/mL (≈ 125 µM)
- Therapeutic index (TI) VAR-BSH LLC-MK2 [4]: 47.6
- IC50 [4]: 2.1 µg/mL (≈ 8.6 µM)
- Therapeutic index (TI) VAR-GAR Vero [5]: 5.9
- IC50 [5, 38]: 39 µg/mL (≈ 160 µM)
- IC50 ([5]; read-out: IC50 VAR-GAR Vero): 17 µg/mL (≈ 69.6 µM)
- IC50 [6]: 45 µg/mL (≈ 184 µM)
- IC50 [7]: 54 µg/mL (≈ 221 µM)
- IC50 [8]: 26 µg/mL (≈ 106 µM)
- Therapeutic index (TI) CPX LLC-MK2 [9]: 9.4
- IC50 [9]: 10.6 µg/mL (≈ 43.4 µM)
- IC50 [10]: 33 µg/mL (≈ 135 µM)
- Therapeutic index (TI) VAR-GAR LLC-MK2 [11]: 27.8
- IC50 [11]: 3.6 µg/mL (≈ 14.7 µM)
- Therapeutic index (TI) VAC LLC-MK2 [12]: 4.2
- IC50 [12]: 23.9 µg/mL (≈ 97.9 µM)
- IC50 [13]: 84 µg/mL (≈ 344 µM)
- IC50 [14]: 221 µg/mL (≈ 905 µM)
- IC50 [15]: 50 ± 8 µg/mL (≈ 205 µM)
- Therapeutic index (TI) MPX Vero [16]: 16.9
- IC50 ([16]; read-out: IC50, MPX): 11 µg/mL (≈ 45 µM)
- IC50 ([16]; read-out: IC50 MPX Vero): 5.9 µg/mL (≈ 24.2 µM)
- Therapeutic index (TI) VAR-YAM Vero [17]: 6.3
- IC50 [17, 39]: 40 µg/mL (≈ 164 µM)
- IC50 ([17]; read-out: IC50 VAR-YAM Vero): 15.8 µg/mL (≈ 64.7 µM)
- IC50 [18]: 37 µg/mL (≈ 152 µM)
- IC50 [19]: 47 µg/mL (≈ 192 µM)
- IC50 [20]: 15 µg/mL (≈ 61.4 µM)
- IC50 [21]: 40 µg/mL (≈ 164 µM)
- protection of CPX-infected mice ([22]; mouse, in vivo): can protect CPX-infected mice
- IC50 [23]: 28 µg/mL (≈ 115 µM)
- IC50 [24]: 11 µg/mL (≈ 45 µM)
- Therapeutic index (TI) MPX LLC-MK2 [25]: 24.4
- IC50 [25]: 4.1 µg/mL (≈ 16.8 µM)
- IC50 [26]: 30 µg/mL (≈ 123 µM)
- Therapeutic index (TI) VAR-BSH Vero [27]: 5.4
- IC50 [27, 40]: 30 µg/mL (≈ 123 µM)
- IC50 ([27]; read-out: IC50 VAR-BSH Vero): 18.4 µg/mL (≈ 75.3 µM)
- IC50 [28]: 28 µg/mL (≈ 115 µM)
- IC50 [29]: 41 µg/mL (≈ 168 µM)
- Therapeutic index (TI) VAC Vero [30]: 1.0
- IC50 [30]: > 100 µg/mL
- IC50 [31]: 453 µg/mL (≈ 1850 µM)
- IC50 ([32]; LLC-MK2, read-out: mean IC50 on LLC-MK2 cells): 8 ± 3.4 µg/mL (≈ 32.8 µM)
- IC50 ([32]; Vero, read-out: mean IC50 on Vero cells): 31.3 ± 14.1 µg/mL (≈ 128 µM)
- IC50 [33]: 48 µg/mL (≈ 197 µM)
- Cytotoxicity TC50 LLC-MK2 [34]: >100 µg/mL
- Therapeutic index (TI) VAR-YAM LLC-MK2 [35]: 29.4
- IC50 [35]: 3.4 µg/mL (≈ 13.9 µM)
- IC50 [36]: 24 µg/mL (≈ 98.3 µM)
- inhibition of VAC replication in vitro [37]: inhibited VAC replication in vitro

SMILES: Nc1ccn(C[C@@H](CO)OCP(=O)(O)O)c(=O)n1 [Cidofovir, 1-[(S)-3-hydroxy-2-(phosphonomethoxy)-propyl]cytosine]
- Cytotoxicity TC50 Vero [1]: >100 µg/mL
- IC50 [2]: 12 µg/mL (≈ 43 µM)
- Therapeutic index (TI) CPX Vero [3]: 13.3
- IC50 ([3]; read-out: IC50, CPX): 13 µg/mL (≈ 46.6 µM)
- IC50 ([3]; read-out: IC50 CPX Vero): 7.5 µg/mL (≈ 26.9 µM)
- Therapeutic index (TI) VAR-BSH LLC-MK2 [4]: 31.3
- IC50 [4]: 3.2 µg/mL (≈ 11.5 µM)
- Therapeutic index (TI) VAR-GAR Vero [5]: 22.2
- IC50 [5, 38]: 7 µg/mL (≈ 25.1 µM)
- IC50 ([5]; read-out: IC50 VAR-GAR Vero): 4.5 µg/mL (≈ 16.1 µM)
- IC50 [6]: 7 µg/mL (≈ 25.1 µM)
- IC50 [7]: 10 µg/mL (≈ 35.8 µM)
- IC50 [8]: 5 µg/mL (≈ 17.9 µM)
- Therapeutic index (TI) CPX LLC-MK2 [9]: 83.3
- IC50 [9]: 1.2 µg/mL (≈ 4.3 µM)
- IC50 [10]: 10 µg/mL (≈ 35.8 µM)
- Therapeutic index (TI) VAR-GAR LLC-MK2 [11]: 40.0
- IC50 [11]: 2.5 µg/mL (≈ 8.95 µM)
- Therapeutic index (TI) VAC LLC-MK2 [12]: 23.3
- IC50 [12]: 4.3 µg/mL (≈ 15.4 µM)
- IC50 [13]: 7 µg/mL (≈ 25.1 µM)
- IC50 [14]: 12 µg/mL (≈ 43 µM)
- IC50 [15]: 12 ± 1 µg/mL (≈ 43 µM)
- Therapeutic index (TI) MPX Vero [16]: 14.9
- IC50 ([16]; read-out: IC50, MPX): 11 µg/mL (≈ 39.4 µM)
- IC50 ([16]; read-out: IC50 MPX Vero): 6.7 µg/mL (≈ 24 µM)
- Therapeutic index (TI) VAR-YAM Vero [17]: 8.3
- IC50 [17, 39]: 13 µg/mL (≈ 46.6 µM)
- IC50 ([17]; read-out: IC50 VAR-YAM Vero): 12.1 µg/mL (≈ 43.3 µM)
- IC50 [18]: 12 µg/mL (≈ 43 µM)
- IC50 [19]: 10 µg/mL (≈ 35.8 µM)
- IC50 [20]: 11 µg/mL (≈ 39.4 µM)
- IC50 [21]: 28 µg/mL (≈ 100 µM)
- activity in vivo, CPX mouse model [22]: active in vivo
- IC50 [23]: 11 µg/mL (≈ 39.4 µM)
- IC50 [24]: 8 µg/mL (≈ 28.7 µM)
- Therapeutic index (TI) MPX LLC-MK2 [25]: 27.0
- IC50 [25]: 3.7 µg/mL (≈ 13.3 µM)
- IC50 [26]: 12 µg/mL (≈ 43 µM)
- Therapeutic index (TI) VAR-BSH Vero [27]: 10.5
- IC50 ([27]; 120 h, read-out: apparent IC50): 10.9 µg/mL (≈ 39 µM)
- IC50 [27, 40]: 17 µg/mL (≈ 60.9 µM)
- IC50 ([27]; read-out: IC50 VAR-BSH Vero): 9.5 µg/mL (≈ 34 µM)
- IC50 [28]: 6 µg/mL (≈ 21.5 µM)
- IC50 [29]: 13 µg/mL (≈ 46.6 µM)
- Therapeutic index (TI) VAC Vero [30]: 12.3
- IC50 [30]: 8.1 µg/mL (≈ 29 µM)
- IC50 [31]: 19 µg/mL (≈ 68.1 µM)
- TI against the panel of viruses [32]: 18.2
- IC50 ([32]; read-out: mean IC50 against the panel of viruses): 5.5 ± 0.95 µg/mL (≈ 19.7 µM)
- IC50 [33]: 14 µg/mL (≈ 50.1 µM)
- Cytotoxicity TC50 LLC-MK2 [34]: >100 µg/mL
- Therapeutic index (TI) VAR-YAM LLC-MK2 [35]: 37.0
- IC50 [35]: 2.7 µg/mL (≈ 9.67 µM)
- IC50 [36]: 17 µg/mL (≈ 60.9 µM)
- inhibition of VAC replication in vitro [37]: inhibit VAC replication in vitro
